For this assay, the system named is L1210 leukemia ip in BDF1 mice, survival T/C. The assay can be described thus: NCI In Vivo Anticancer Drug Screen. Data for tumor model L1210 Leukemia (intraperitoneal) in B6D2F1 (BDF1) mice. The following applies: endpoint: mean survival time, higher = longer survival. An outline of the steps: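 Survival endpoint. Drug-treated group vs vehicle group, expressed as T divided by C. Tumor passaged by transplantation.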

The mark [1] stands for this setting: dose: 100.0 mg/kg/injection, schedule: Q04DX003 (ip), vehicle: Klucel (hydroxypropylcellulose) (HPC).
The mark [2] stands for this setting: dose: 200.0 mg/kg/injection, schedule: Q04DX003 (ip), vehicle: Klucel (hydroxypropylcellulose) (HPC).
Setting [3] is: dose: 400.0 mg/kg/injection, schedule: Q04DX003 (ip), vehicle: Klucel (hydroxypropylcellulose) (HPC).
Where [4] appears, read: dose: 12.5 mg/kg/injection, schedule: Q04DX003 (ip), vehicle: saline.
Setting [5] is: dose: 25.0 mg/kg/injection, schedule: Q04DX003 (ip), vehicle: saline.
[6] abbreviates: dose: 50.0 mg/kg/injection, schedule: Q04DX003 (ip), vehicle: saline.
Where [7] appears, read: dose: 100.0 mg/kg/injection, schedule: Q01DX009 (ip), vehicle: saline.
Where [8] appears, read: dose: 100.0 mg/kg/injection, schedule: Q04DX003 (ip), vehicle: saline.
Setting [9] is: dose: 200.0 mg/kg/injection, schedule: Q01DX009 (ip), vehicle: saline.
[10] abbreviates: dose: 200.0 mg/kg/injection, schedule: Q04DX003 (ip), vehicle: saline.
The mark [11] stands for this setting: dose: 400.0 mg/kg/injection, schedule: Q04DX003 (ip), vehicle: saline.
Where [12] appears, read: dose: 100.0 mg/kg/injection, schedule: Q01DX001 (ip), vehicle: saline.
The mark [13] stands for this setting: dose: 200.0 mg/kg/injection, schedule: Q01DX001 (ip), vehicle: saline.
Where [14] appears, read: dose: 400.0 mg/kg/injection, schedule: Q01DX001 (ip), vehicle: saline.
Where [15] appears, read: dose: 100.0 mg/kg/injection, schedule: Q01DX001 (ip), vehicle: Klucel (hydroxypropylcellulose) (HPC).
Setting [16] is: dose: 50.0 mg/kg/injection, schedule: Q01DX001 (ip), vehicle: saline.
[17] abbreviates: dose: 200.0 mg/kg/injection, schedule: Q01DX001 (ip), vehicle: Klucel (hydroxypropylcellulose) (HPC).
Where [18] appears, read: dose: 400.0 mg/kg/injection, schedule: Q01DX001 (ip), vehicle: Klucel (hydroxypropylcellulose) (HPC).

“And” between values parts separate entries of the source, which are not always exact repeats. Identical values can stand only once. Inconclusive results and toxic doses are left out.

In the case of `Cc1cc(Br)c2c(c1O)C13CCN(C)C(C2)C1CC(Br)C(=O)C3` (stereo unspecified), the T/C by setting is: (dose: 1.56 mg/kg/injection, schedule: Q01DX001 (ip), vehicle: saline) 97 % of control; (dose: 3.12 mg/kg/injection, schedule: Q01DX001 (ip), vehicle: saline) 100 % of control; (dose: 6.25 mg/kg/injection, schedule: Q01DX001 (ip), vehicle: saline) 105 % of control; (dose: 12.5 mg/kg/injection, schedule: Q01DX001 (ip), vehicle: saline) 108 % of control.
For `CC(=O)OC1C=CN(C(C)=O)C(SC23CC4CC(CC(C4)C2)C3)C1OC(C)=O` (stereo unspecified), the T/C is 92 % of control under setting [1], 100 % of control under setting [2] and 92 % of control under setting [3].
Turning to `CCC1CC(C)C(=O)NC1=O` (stereo unspecified), the T/C reads like this: (dose: 12.5 mg/kg/injection, schedule: Q01DX009 (ip), vehicle: saline) 95 % of control; under setting [4], 91 % of control; (dose: 25.0 mg/kg/injection, schedule: Q01DX009 (ip), vehicle: saline) 100 % of control; under setting [5], 110 % of control; (dose: 50.0 mg/kg/injection, schedule: Q01DX009 (ip), vehicle: saline) 95 % of control; under setting [6], 96 % of control.
As to `CCCCCCCCCCCc1cc(=O)n(-c2ccccc2)n1C`, the T/C runs as follows: (dose: 12.5 mg/kg/injection, schedule: Q04DX003 (ip), vehicle: saline with Tween-80) 92 % of control; (dose: 25.0 mg/kg/injection, schedule: Q04DX003 (ip), vehicle: saline with Tween-80) 98 % of control; (dose: 50.0 mg/kg/injection, schedule: Q04DX003 (ip), vehicle: saline with Tween-80) 95 % of control; (dose: 200.0 mg/kg/injection, schedule: Q04DX003 (ip), vehicle: saline with Tween-80) 102 % of control.
Turning to `O=C(O)CCCC[P+](c1ccccc1)(c1ccccc1)c1ccccc1`, the T/C is 98 % of control under setting [7]; 105 % of control under setting [8]; 100 % of control under setting [9]; 107 % of control under setting [10]; 102 % of control under setting [11].
On to `c1ccc2c(c1)ccc1oc3ccccc3c12`, for which the T/C under setting [12] is 101 % of control, the T/C under setting [13] was 95 % of control and the T/C under setting [14] is 98 % of control.
As for `COc1ccc(C(=O)/C=C/c2ccc(OCc3ccccc3)c(OC)c2)cc1OC`, the T/C is, setting by setting: (dose: 100.0 mg/kg/injection, schedule: Q04DX003 (ip), vehicle: water) 93 % of control; (dose: 200.0 mg/kg/injection, schedule: Q04DX003 (ip), vehicle: water) 93 % of control; (dose: 400.0 mg/kg/injection, schedule: Q04DX003 (ip), vehicle: water) 91 % of control.
On to `NC(=O)COc1ccc2ccccc2c1Cl`, for which the T/C was 96 % of control (dose: 100.0 mg/kg/injection, schedule: Q04DX002 (ip), vehicle: Klucel (hydroxypropylcellulose) (HPC)) and 89 % of control (dose: 200.0 mg/kg/injection, schedule: Q04DX002 (ip), vehicle: Klucel (hydroxypropylcellulose) (HPC)).
`COC(=O)C1CCC(NC(=O)N(CCCl)N=O)CC1` (stereo unspecified): the T/C by setting is: (dose: 13.0 mg/kg/injection, schedule: Q01DX001 (ip), vehicle: Klucel (hydroxypropylcellulose) (HPC)) 212 % of control and 188 % of control; (dose: 20.0 mg/kg/injection, schedule: Q01DX001 (ip), vehicle: Klucel (hydroxypropylcellulose) (HPC)) 270 % of control and 283 % of control; (dose: 30.0 mg/kg/injection, schedule: Q01DX001 (ip), vehicle: Klucel (hydroxypropylcellulose) (HPC)) 283 % of control; (dose: 44.0 mg/kg/injection, schedule: Q01DX001 (ip), vehicle: Klucel (hydroxypropylcellulose) (HPC)) 248 % of control and 282 % of control; (dose: 67.0 mg/kg/injection, schedule: Q01DX001 (ip), vehicle: Klucel (hydroxypropylcellulose) (HPC)) 266 % of control; under setting [15], 104 % of control.
In the case of `CCOc1nc(OCC)c2[nH]c(C(=O)O)c(Br)c2n1`, the T/C reads like this: under setting [16], 107 % of control; under setting [12], 100 % of control; under setting [13], 105 % of control; under setting [14], 107 % of control.
As for `c1ccc2c(c1)ccc1c3ccc4ccccc4c3[nH]c21`, the T/C by setting is: under setting [12], 95 % of control; under setting [13], 90 % of control; under setting [14], 94 % of control.
Take `N#CCCCCCCCCC(=O)c1ccc(O)cc1O`: the T/C by setting is: (dose: 87.5 mg/kg/injection, schedule: Q01DX009 (ip), vehicle: Klucel (hydroxypropylcellulose) (HPC)) 96 % of control; (dose: 175.0 mg/kg/injection, schedule: Q01DX009 (ip), vehicle: Klucel (hydroxypropylcellulose) (HPC)) 100 % of control; (dose: 350.0 mg/kg/injection, schedule: Q01DX009 (ip), vehicle: Klucel (hydroxypropylcellulose) (HPC)) 102 % of control.
For the molecule `O=C(CCl)Nc1ncn[nH]1`, the T/C runs as follows: (dose: 75.0 mg/kg/injection, schedule: Q01DX001 (ip), vehicle: carboxymethylcellulose (CMC)) 101 % of control; (dose: 150.0 mg/kg/injection, schedule: Q01DX001 (ip), vehicle: carboxymethylcellulose (CMC)) 97 % of control; (dose: 300.0 mg/kg/injection, schedule: Q01DX001 (ip), vehicle: carboxymethylcellulose (CMC)) 107 % of control.
In the case of `O=C(O)CSC1(SCC(=O)O)CCCCC1`, the T/C is 103 % of control under setting [15], 97 % of control under setting [17] and 97 % of control under setting [18].
With `CC(O)C/C=N\N=C(N)N` (stereo unspecified), the T/C was 95 % of control (dose: 15.0 mg/kg/injection, schedule: Q01DX Z (ip), vehicle: methylcellulose (MC)); 101 % of control (dose: 15.0 mg/kg/injection, schedule: Q01DX Z (oral), vehicle: methylcellulose (MC)); 88 % of control (dose: 30.0 mg/kg/injection, schedule: Q01DX Z (oral), vehicle: methylcellulose (MC)); 94 % of control (dose: 60.0 mg/kg/injection, schedule: Q01DX Z (oral), vehicle: methylcellulose (MC)); 88 % of control (dose: 120.0 mg/kg/injection, schedule: Q01DX Z (oral), vehicle: methylcellulose (MC)).
Consider `CCN(CC)CC(=O)NCC(CC)(CCN1CCCCC1)c1cccc2ccccc12` (stereo unspecified), for which the T/C under setting [6] is 92 % of control; the T/C under setting [7] is 114 % of control; the T/C under setting [8] is 102 % of control; the T/C under setting [9] is 102 % of control; the T/C under setting [10] was 97 % of control.
Regarding `O=C(O)C1CCCN1C(=O)Cc1ccc2c(c1)OCO2` (stereo unspecified), the T/C (dose: 75.0 mg/kg/injection, schedule: Q01DX009 (ip), vehicle: Klucel (hydroxypropylcellulose) (HPC)) is 96 % of control; the T/C under setting [15] is 98 % of control; the T/C (dose: 150.0 mg/kg/injection, schedule: Q01DX009 (ip), vehicle: Klucel (hydroxypropylcellulose) (HPC)) is 93 % of control; the T/C under setting [17] is 95 % of control; the T/C (dose: 300.0 mg/kg/injection, schedule: Q01DX009 (ip), vehicle: Klucel (hydroxypropylcellulose) (HPC)) is 98 % of control; the T/C under setting [18] is 92 % of control.
Take `Cc1nc2cc(Cl)cc([N+](=O)[O-])c2nc1C`: the T/C is 91 % of control (dose: 100.0 mg/kg/injection, schedule: Q01DX009 (ip), vehicle: Klucel (hydroxypropylcellulose) (HPC)); 93 % of control (dose: 200.0 mg/kg/injection, schedule: Q01DX009 (ip), vehicle: Klucel (hydroxypropylcellulose) (HPC)); 91 % of control (dose: 400.0 mg/kg/injection, schedule: Q01DX009 (ip), vehicle: Klucel (hydroxypropylcellulose) (HPC)).
As to `CC1(C)N=C(N)N=C(N)N1c1cccc(C(=O)O)c1`, the T/C runs as follows: (dose: 25.0 mg/kg/injection, schedule: Q01DX001 (ip), vehicle: saline) 100 % of control; under setting [16], 102 % of control; under setting [12], 105 % of control.
Consider `C[Si](C)(C#CC1(O)CCCCC1)CCl`, for which the T/C by setting is: under setting [1], 107 % of control; under setting [2], 106 % of control; under setting [3], 103 % of control.
Regarding `O=C(CC(c1ccccc1)N1CCN(c2ccccc2)CC1)c1ccccc1` (stereo unspecified), the T/C is, setting by setting: under setting [1], 102 % of control; under setting [2], 97 % of control; under setting [3], 94 % of control.
Consider `CCCCNC(=O)C1C2CC3OC(=O)C1C3C2` (stereo unspecified), for which the T/C is 89 % of control under setting [4]; 95 % of control under setting [5]; 100 % of control under setting [6]; 95 % of control under setting [8]; 98 % of control under setting [10]; 101 % of control under setting [11].

For the origin of these results see PubChem BioAssay AID248 (DTP/NCI, 2004).
